Consider eight molecules from patent publication US20260132164A1, “PNU ANTHRACYCLINE DERIVATIVES AND METHODS OF USE THEREOF” (Merck Sharp & Dohme LLC, priority 2022, published 2026).

Broadly, the EC50 is the concentration giving half of the maximal effect. High values mean weaker potency, low ones greater potency.

The test system of one experiment is BxPC3. The experiment can be described thus: CellTiter-Glo 2.0 Cytotoxicity Assay. Particulars: CellTiter-Glo 2.0 luminescence; compound added day 1, read on day 4 or 5; 3000 cells/well. Type of experiment: cell-based. In general terms: In ATP-based viability assays light output follows the ATP content of the culture.
As for `COc1cccc2c1C(=O)c1c(O)c3c(c(O)c1C2=O)C[C@@](O)(C(=O)NCC1CC(=O)NC1=O)C[C@@H]3O[C@H]1C[C@H]2[C@H](O[C@@H]3[C@@H](OC)OCCN32)[C@H](C)O1` (some centres unmarked) [Compound 87], the midpoint of the response, the EC50, lay at 0.12 nM.

The same experiment, now with this note: Homo sapiens, BXPC-3, CellTiter-Glo 2.0 luminescence; compound added day 1, read on day 4 or 5; 3000 cells/well.
As to `COc1cccc2c1C(=O)c1c(O)c3c(c(O)c1C2=O)C[C@@](O)(C(=O)N[C@H]1CCCC[C@@H]1N)C[C@@H]3O[C@H]1C[C@H]2[C@H](O[C@@H]3[C@@H](OC)OCCN32)[C@H](C)O1` [Compound 25], a half-maximal response (EC50) required 10.5 nM.

For the molecule `COc1cccc2c1C(=O)c1c(O)c3c(c(O)c1C2=O)C[C@@](O)(C(=O)NC1CC2(CNC2)C1)C[C@@H]3O[C@H]1C[C@H]2[C@H](O[C@@H]3[C@@H](OC)OCCN32)[C@H](C)O1` [Compound 46], the EC50 is 18 nM. Against the preceding molecule, the EC50 is about 1.7-fold higher. Same read-out and setting: in the case of `COc1cccc2c1C(=O)c1c(O)c3c(c(O)c1C2=O)C[C@@](O)(C(=O)NCc1ccc(N)cc1)C[C@@H]3O[C@H]1C[C@H]2[C@H](O[C@@H]3[C@@H](OC)OCCN32)[C@H](C)O1` [Compound 23] it was 0.06 nM. On the same count and under the same terms, in the case of `COc1cccc2c1C(=O)c1c(O)c3c(c(O)c1C2=O)C[C@@](O)(C(=O)NC[C@H]1C[C@@H](N)C1)C[C@@H]3O[C@H]1C[C@H]2[C@H](O[C@@H]3[C@@H](OC)OCCN32)[C@H](C)O1` [Compound 31] it was 2.6 nM; in that of `COc1cccc2c1C(=O)c1c(O)c3c(c(O)c1C2=O)C[C@@](O)(C(=O)N[C@H]1CC[C@@H](N)C1)C[C@@H]3O[C@H]1C[C@H]2[C@H](O[C@@H]3[C@@H](OC)OCCN32)[C@H](C)O1` [Compound 34], 19 nM. On the same count and under the same terms, in the case of `COc1cccc2c1C(=O)c1c(O)c3c(c(O)c1C2=O)C[C@@](O)(C(=O)NCCN(C)C(=O)[C@@](C)(N)C(C)C)C[C@@H]3O[C@H]1C[C@H]2[C@H](O[C@@H]3[C@@H](OC)OCCN32)[C@H](C)O1` [Compound 52] it was 1.9 nM.

On to `COc1cccc2c1C(=O)c1c(O)c3c(c(O)c1C2=O)C[C@@](O)(C(=O)N[C@H]1[C@@H]2CNC[C@@H]21)C[C@@H]3O[C@H]1C[C@H]2[C@H](O[C@@H]3[C@@H](OC)OCCN32)[C@H](C)O1` [Compound 35], for which the EC50 was 0.97 nM.
